Results from the supplement of paper PMC10627819.

Legend:
Experiment in all cases: Bliss interaction score (quartile over a dose matrix) (fitness difference); higher = more antagonism (negative = synergy)
B. subtilis 168 = system: B. subtilis 168
Summary of the method: (§1)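 Values were capped at 1 after dividing OD595 at stationary-phase entry by the plate's robust no-drug mean. This ratio is fitness, and single-drug fitness was inferred from the combination data. The Bliss score is observed minus product-expected fitness, given as quartiles over technical, biological and donor/recipient replicates.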

S. aureus DSM 20231 = system: S. aureus DSM 20231
Summary of the method: as §1

S. aureus Newman = system: S. aureus Newman
Summary of the method: as §1

S. pneumoniae D39V = system: S. pneumoniae D39V
Summary of the method: as §1
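Note: first quartile when negative (synergy) and third quartile when positive (antagonism).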

With `CC1(C)S[C@@H]2[C@H](NC(=O)Cc3ccccc3)C(=O)N2[C@H]1C(=O)O` [PenicillinG] + COc1ccc(C[C@H](N)C(=O)N[C@H]2[C@@H](O)[C@H](n3cnc4c(N(C)C)ncnc43)O[C@@H]2CO)cc1 [Puromycin] the Bliss interaction score (B. subtilis 168) was 0.0536, the Bliss interaction score (S. aureus DSM 20231) was -0.0369 and the Bliss interaction score (S. aureus Newman) was 0.0759. The Bliss interaction score (S. pneumoniae D39V) was 0.0834.
`CC1(C)S[C@@H]2[C@H](NC(=O)Cc3ccccc3)C(=O)N2[C@H]1C(=O)O` [PenicillinG] + CCCCCCCCCC(=O)N[C@@H]1[C@H]([C@@H]([C@H](O[C@H]1OC2=C3C=C4C=C2OC5=C(C=C(C=C5)[C@H]([C@H]6C(=O)N[C@@H](C7=C(C(=CC(=C7)O)OC8[C@H]([C@H]([C@@H]([C@H](O8)CO)O)O)O)C9=C(C=CC(=C9)[C@H](C(=O)N6)NC(=O)[C@@H]4NC(=O)[C@@H]1C2=CC(=CC(=C2)OC2=C(C=CC(=C2)[C@H](C(=O)N[C@H](CC2=CC(=C(O3)C=C2)Cl)C(=O)N1)N)O)O)O)C(=O)O)O[C@H]1[C@@H]([C@H]([C@@H]([C@H](O1)CO)O)O)NC(=O)C)Cl)CO)O)O [Teicoplanin] showed a Bliss interaction score (B. subtilis 168; main component drawn) of -0.176, a Bliss interaction score (S. aureus DSM 20231; main component drawn) of -0.0396 and a Bliss interaction score (S. aureus Newman; main component drawn) of 0.0744. The Bliss interaction score (S. pneumoniae D39V; main component drawn) was -0.0521.
`CC(=O)Oc1ccccc1C(=O)O` [Acetylsalicylicacid] + CC(C1CCC(C(O1)OC2C(CC(C(C2O)OC3C(C(C(CO3)(C)O)NC)O)N)N)N)NC [Gentamicin] showed a Bliss interaction score (B. subtilis 168; main component drawn) of 0.286, a Bliss interaction score (S. aureus DSM 20231; main component drawn) of 0.165 and a Bliss interaction score (S. aureus Newman; main component drawn) of 0.0614. It also gave a Bliss interaction score (S. pneumoniae D39V; main component drawn) of 0.0535.
`CC1(C)S[C@@H]2[C@H](NC(=O)Cc3ccccc3)C(=O)N2[C@H]1C(=O)O` [PenicillinG] + COc1cc(Cc2cnc(N)nc2N)cc(OC)c1OC [Trimethoprim] was tested, and the Bliss interaction score (B. subtilis 168) was -0.131, the Bliss interaction score (S. aureus DSM 20231) was -0.0299 and the Bliss interaction score (S. aureus Newman) was -0.0822. The Bliss interaction score (S. pneumoniae D39V) was 0.101.
In the case of `CC1(C)S[C@@H]2[C@H](NC(=O)Cc3ccccc3)C(=O)N2[C@H]1C(=O)O` [PenicillinG] + CN(N=O)C(=O)N[C@@H](C=O)[C@@H](O)[C@H](O)[C@H](O)CO [Streptozotocin], the Bliss interaction score (B. subtilis 168) is reported as 0.0513, the Bliss interaction score (S. aureus DSM 20231) is reported as -0.0545 and the Bliss interaction score (S. aureus Newman) is reported as -0.0606. For the same compound, the Bliss interaction score (S. pneumoniae D39V) was 0.0394.
`CC(=O)Oc1ccccc1C(=O)O` [Acetylsalicylicacid] + CC1=C\[C@@H](O)CC(=O)Cc2nc(co2)C(=O)N2CCC=C2C(=O)O[C@H](C(C)C)[C@H](C)/C=C/C(=O)NC\C=C\1 [Virginiamycin M1] gave a Bliss interaction score (B. subtilis 168) of -0.0602, a Bliss interaction score (S. aureus DSM 20231) of -0.0657 and a Bliss interaction score (S. aureus Newman) of -0.0537. It also gave a Bliss interaction score (S. pneumoniae D39V) of -0.0556.
For `CC(=O)Oc1ccccc1C(=O)O` [Acetylsalicylicacid] + CO[C@@]12[C@H](COC(N)=O)C3=C(C(=O)C(C)=C(N)C3=O)N1C[C@@H]1N[C@@H]12 [MitomycinC], the Bliss interaction score (B. subtilis 168) was -0.0648, the Bliss interaction score (S. aureus DSM 20231) was 0.0545 and the Bliss interaction score (S. aureus Newman) was -0.0274. It also gave a Bliss interaction score (S. pneumoniae D39V) of 0.0652.
`CO/N=C(\C(=O)N[C@@H]1C(=O)N2C(C(=O)O)=C(COC(N)=O)CS[C@H]12)c1ccco1` [Cefuroxime] + O=C(O)c1cn(C2CC2)c2cc(N3CCNCC3)c(F)cc2c1=O [Ciprofloxacin] was tested, and the Bliss interaction score (B. subtilis 168) was -0.171, the Bliss interaction score (S. aureus DSM 20231) was -0.31 and the Bliss interaction score (S. aureus Newman) was -0.0563. It also gave a Bliss interaction score (S. pneumoniae D39V) of -0.0381.
Work on `CC(=O)Oc1ccccc1C(=O)O` [Acetylsalicylicacid] + CC[C@H]1OC(=O)[C@H](C)[C@@H](O[C@H]2C[C@@](C)(OC)[C@@H](O)[C@H](C)O2)[C@H](C)[C@@H](O[C@@H]2O[C@H](C)C[C@H](N(C)C)[C@H]2O)[C@](C)(OC)C[C@@H](C)C(=O)[C@H](C)[C@@H](O)[C@]1(C)O [Clarithromycin] yielded a Bliss interaction score (B. subtilis 168) of 0.322, a Bliss interaction score (S. aureus DSM 20231) of 0.109 and a Bliss interaction score (S. aureus Newman) of 0.151. For the same compound, the Bliss interaction score (S. pneumoniae D39V) was 0.0695.
`CO/N=C(\C(=O)N[C@@H]1C(=O)N2C(C(=O)O)=C(COC(N)=O)CS[C@H]12)c1ccco1` [Cefuroxime] + CN(C)[C@@H]1C(O)=C(C(N)=O)C(=O)[C@@]2(O)C(O)=C3C(=O)c4c(O)ccc(Cl)c4[C@@](C)(O)[C@H]3C[C@@H]12 [Clortetracycline] was tested, and the Bliss interaction score (B. subtilis 168) was -0.0786, the Bliss interaction score (S. aureus DSM 20231) was -0.269 and the Bliss interaction score (S. aureus Newman) was -0.0677. It also gave a Bliss interaction score (S. pneumoniae D39V) of 0.112.
`CC(=O)Oc1ccccc1C(=O)O` [Acetylsalicylicacid] + CC1(C)S[C@@H]2[C@H](NC(=O)Cc3ccccc3)C(=O)N2[C@H]1C(=O)O [PenicillinG] showed a Bliss interaction score (B. subtilis 168) of 0.117, a Bliss interaction score (S. aureus DSM 20231) of 0.101 and a Bliss interaction score (S. aureus Newman) of 0.0702. For the same compound, the Bliss interaction score (S. pneumoniae D39V) was -0.0595.
`CC1(C)S[C@@H]2[C@H](NC(=O)Cc3ccccc3)C(=O)N2[C@H]1C(=O)O` [PenicillinG] + CO[C@H]1/C=C/O[C@@]2(C)Oc3c(C)c(O)c4c(O)c(c(/C=N/N5CCN(C)CC5)c(O)c4c3C2=O)NC(=O)/C(C)=C\C=C\[C@H](C)[C@H](O)[C@@H](C)[C@@H](O)[C@@H](C)[C@H](OC(C)=O)[C@@H]1C [Rifampicin] gave a Bliss interaction score (B. subtilis 168) of 0.0761, a Bliss interaction score (S. aureus DSM 20231) of 0.036 and a Bliss interaction score (S. aureus Newman) of 0.0252. For the same compound, the Bliss interaction score (S. pneumoniae D39V) was -0.112.
`COc1ccc(C[C@H](N)C(=O)N[C@H]2[C@@H](O)[C@H](n3cnc4c(N(C)C)ncnc43)O[C@@H]2CO)cc1` [Puromycin] + CC[C@H]1OC(=O)[C@H](C)C(=O)[C@H](C)[C@@H](O[C@@H]2O[C@H](C)C[C@H](N(C)C)[C@H]2O)[C@](C)(OC)C[C@@H](C)C(=O)[C@H](C)[C@H]2N(CCCCn3cnc(-c4cccnc4)c3)C(=O)O[C@]12C [Telithromycin] was tested, and the Bliss interaction score (B. subtilis 168) was 0.0276, the Bliss interaction score (S. aureus DSM 20231) was 0.045 and the Bliss interaction score (S. aureus Newman) was -0.0571. The Bliss interaction score (S. pneumoniae D39V) was -0.0651.
Work on `CC(=O)Oc1ccccc1C(=O)O` [Acetylsalicylicacid] + CC[C@H]1OC(=O)[C@H](C)C(=O)[C@H](C)[C@@H](O[C@@H]2O[C@H](C)C[C@H](N(C)C)[C@H]2O)[C@](C)(OC)C[C@@H](C)C(=O)[C@H](C)[C@H]2N(CCCCn3cnc(-c4cccnc4)c3)C(=O)O[C@]12C [Telithromycin] yielded a Bliss interaction score (B. subtilis 168) of 0.205, a Bliss interaction score (S. aureus DSM 20231) of 0.0695 and a Bliss interaction score (S. aureus Newman) of 0.0539. It also gave a Bliss interaction score (S. pneumoniae D39V) of -0.043.
With `CC1(C)S[C@@H]2[C@H](NC(=O)Cc3ccccc3)C(=O)N2[C@H]1C(=O)O` [PenicillinG] + Oc1cc(Cl)ccc1Oc1ccc(Cl)cc1Cl [Triclosan] the Bliss interaction score (B. subtilis 168) was 0.0307, the Bliss interaction score (S. aureus DSM 20231) was 0.0254 and the Bliss interaction score (S. aureus Newman) was 0.0326. It also gave a Bliss interaction score (S. pneumoniae D39V) of 0.0767.
With `CC(=O)Oc1ccccc1C(=O)O` [Acetylsalicylicacid] + CC[C@H]1OC(=O)[C@H](C)[C@@H](O[C@H]2C[C@@](C)(OC)[C@@H](O)[C@H](C)O2)[C@H](C)[C@@H](O[C@@H]2O[C@H](C)C[C@H](N(C)C)[C@H]2O)[C@](C)(O)C[C@@H](C)CN(C)[C@H](C)[C@@H](O)[C@]1(C)O [Azithromycin] the Bliss interaction score (B. subtilis 168) was 0.153, the Bliss interaction score (S. aureus DSM 20231) was 0.179 and the Bliss interaction score (S. aureus Newman) was 0.105. The Bliss interaction score (S. pneumoniae D39V) was 0.0486.
